This assay deals with Hek293 cells. Kind of assay: Fluorescence staining experiment on cells, observed by two-photon excitation fluorescence microscopy. To be noted: for emission of a red fluorescence from the stained cells by two-photon excitation fluorescence microscopy: Hek293 cells stained at 1 μmol dm^−3 for 12 hours, band pass filter central wavelength 650 nm; for fluorescence staining of HeK293 cells: final concentration 1 μmol dm^−3, final DMSO 0.1% (v/v), incubated for 12 hours. Type of assay: cell-based, Human. The procedure:
Human embryonic kidney cells, namely, Hek293 cells were used as model cells for staining. The Hek293 cells were cultured in Dulbecco's Modified Eagle's Medium (DMEM) containing 10% (v/v) fetal bovine serum and 1% (v/v) […] and streptomycin under conditions of 37° C. and 5% CO2.
For preparation of microscopic observation, Hek293 cells were subcultured on a 35-mm glass-based dish, to result in a cell density of 1×10^5 cells/dish. 24 hours after the subculture, adhesion of the cells to the dish was confirmed by microscopic observation. The medium was removed from the dish, and the resulting cells were then washed with a phosphate buffered saline (PBS) twice. 2 mL of DMEM medium not containing phenol red (final concentration of PY: 1 μmol dm^−3, final DMSO concentration: 0.1% (v/v)), to which 2 μL of dimethyl sulfoxide (DMSO) solution of the 1×10^−3 mol/dm^−3 naphthalene derivative (I), anthracene derivative (II) or pyrene derivative (III) had been added, was placed in the dish, and it was then incubated for 12 hours for staining. Immediately before microscopic observation, the medium containing the pigment was removed from the dish, and PBS was then used to wash the cells twice. After that, 2 mL of the DMEM medium not containing phenol red was added to the dish.
A two-photon excitation fluorescence microscope was produced using Optical Block (Hamamatsu Photonics K. K.). As a light source, Femtosecond titanium-sapphire laser (Mira900, Coherent) was used. A mirror unit equipped with a Galvano scanner for scanning a focal point, a short-pass dichroic mirror (FF750-SDi02-25×36, Semrock) having a cutoff wavelength at 750 nm, and a band pass filter (FF01-650/60-25, Semrock) having a central wavelength at 650 nm was inserted into the optical system. For detection of fluorescence, a photomultiplier tube (R928, Hamamatsu Photonics K. K.) was used, and DC was detected at an applied voltage of 1000 V, through a preamplifier (5 MHz)-equipped socket. USB-6251 BNC was used as DAQ, and Lab VIEW2011 (National Instruments) was used as a platform of the control program. As a sample stage, KZGO620-G was used, and as objective lens, infinity corrected objective lens with a magnification of 40 and NA of 1.15 was used.

The text below walks through data of US20170015626A1, “TWO-PHOTON-ABSORBING COMPOUND” (OTSUKA ELECTRONICS CO., LTD., priority 2014, published 2017).

Structures are written as SMILES.

On to `C[n+]1ccc(/C=C/c2ccc3cc4cc(/C=C/c5cc[n+](C)cc5)ccc4cc3c2)cc1` [anthracene derivative (II)], for which the “emission of a red fluorescence from the stained cells by two-photon excitation fluorescence microscopy” value (shortened to “emission of a red fluorescence”) is reported as “emission of a red fluorescence from the aforementioned cells was observed” and the “fluorescence staining of HeK293 cells” value is listed as “could achieve the fluorescence staining of HeK293 cells”.

In the case of `CCCCc1cc(C=Cc2cc[n+](C)cc2)c2ccc3c(CCCC)cc(C=Cc4cc[n+](C)cc4)c4ccc1c2c43.[I-].[I-]` [pyrene derivative (III)], the “emission of a red fluorescence” value is reported as “emission of a red fluorescence from the aforementioned cells was observed” and the “fluorescence staining of HeK293 cells” value was “could achieve the fluorescence staining of HeK293 cells”.

For `C[n+]1ccc(/C=C/c2ccc3cc(/C=C/c4cc[n+](C)cc4)ccc3c2)cc1` [naphthalene derivative (I)], the “emission of a red fluorescence” value is “emission of a red fluorescence from the aforementioned cells was observed” and the “fluorescence staining of HeK293 cells” value was “could achieve the fluorescence staining of HeK293 cells”.
